This note sets out measurements from patent US20240043386A1, “Modulators of the Cystic Fibrosis Transmembrane Conductance Regulator Protein and Methods of Use” (AbbVie Global Enterprises Ltd., priority 2021, published 2024).

In general, EC50 refers to the concentration needed to bring the measured effect to its halfway point.

Assay [1] concerns the target T1, F508delCFTR (Homo sapiens, UniProt P13569, DEL508-508).
T1 construct: expressed in transfected cells; host or cells: CFBE41o- human lung-derived epithelial cell line, doxycycline-inducible expression
Nature of the assay: Cell Surface Expression-Horse Radish Peroxidase (CSE-HRP) assay in CFBE41o-F508delCFTR-HRP cells. Format: cell-based. The following applies: for EC50: CFBE41o-F508delCFTR-HRP cells, 18-24 hours at 33° C., luminescence. Summed up: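 Test compounds were tested alone or alongside a co-corrector (2 μM), 8-point 3-fold series from 20 or 30 μM, for 18–24 h at 33 °C on doxycycline-induced CFBE41o-F508delCFTR-HRP cells. After washing, luminol luminescence reported cell-surface HRP-tagged CFTR, normalized to the positive control (% activity). EC50 was fitted with a variable Hill slope sigmoid from triplicate plates; Z′ >0.5 required.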

Assay [2] has as its target T2, F508del/F508del CFTR (Homo sapiens, UniProt P13569, DEL508-508).
T2 construct: cells isolated from CF patients with the homozygous mutation; endogenous in cells; host or cells: primary human bronchial epithelial (hBE) cells from CF patients homozygous for F508del
Nature of the assay: Trans-Epithelial Current Clamp (TECC) assay using primary human bronchial epithelial cells. It is filed as cell-based. Particulars: for Emax (% Dual): maximum percent activity relative to positive control (co-corrector 0.15 μM + potentiator 0.45 μM = 100%), primary hBE cells F508del/F508del; for EC50: primary hBE cells homozygous F508del/F508del, test C2 corrector with co-corrector and potentiator, 18-24 hours at 37° C., equivalent CFTR current (IEQ)/AUC. Summed up: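 Readout is the equivalent CFTR current (IEQ, from offset-corrected VT and RT) plus AUC from forskolin peak to bumetanide addition, recorded on TECC-24 at 36.5° C. Beforehand, homozygous F508del hBE cultures received correctors with co-corrector and potentiator basolaterally for 18-24 h at 37° C.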

Where [3] appears, read: with co-corrector (2 μM), read-out: EC50 (with co-corrector).
Setting [4] is: without co-corrector, read-out: EC50 (without co-corrector).
The mark [5] stands for this setting: without co-corrector, normalized to on-plate positive control corrector (2 μM).

Molecules are shown by their SMILES. Read-outs that look alike come from different tables or passages of the source.

T1 sequence (P13569 with tags, fused parts or gaps DEL508-508): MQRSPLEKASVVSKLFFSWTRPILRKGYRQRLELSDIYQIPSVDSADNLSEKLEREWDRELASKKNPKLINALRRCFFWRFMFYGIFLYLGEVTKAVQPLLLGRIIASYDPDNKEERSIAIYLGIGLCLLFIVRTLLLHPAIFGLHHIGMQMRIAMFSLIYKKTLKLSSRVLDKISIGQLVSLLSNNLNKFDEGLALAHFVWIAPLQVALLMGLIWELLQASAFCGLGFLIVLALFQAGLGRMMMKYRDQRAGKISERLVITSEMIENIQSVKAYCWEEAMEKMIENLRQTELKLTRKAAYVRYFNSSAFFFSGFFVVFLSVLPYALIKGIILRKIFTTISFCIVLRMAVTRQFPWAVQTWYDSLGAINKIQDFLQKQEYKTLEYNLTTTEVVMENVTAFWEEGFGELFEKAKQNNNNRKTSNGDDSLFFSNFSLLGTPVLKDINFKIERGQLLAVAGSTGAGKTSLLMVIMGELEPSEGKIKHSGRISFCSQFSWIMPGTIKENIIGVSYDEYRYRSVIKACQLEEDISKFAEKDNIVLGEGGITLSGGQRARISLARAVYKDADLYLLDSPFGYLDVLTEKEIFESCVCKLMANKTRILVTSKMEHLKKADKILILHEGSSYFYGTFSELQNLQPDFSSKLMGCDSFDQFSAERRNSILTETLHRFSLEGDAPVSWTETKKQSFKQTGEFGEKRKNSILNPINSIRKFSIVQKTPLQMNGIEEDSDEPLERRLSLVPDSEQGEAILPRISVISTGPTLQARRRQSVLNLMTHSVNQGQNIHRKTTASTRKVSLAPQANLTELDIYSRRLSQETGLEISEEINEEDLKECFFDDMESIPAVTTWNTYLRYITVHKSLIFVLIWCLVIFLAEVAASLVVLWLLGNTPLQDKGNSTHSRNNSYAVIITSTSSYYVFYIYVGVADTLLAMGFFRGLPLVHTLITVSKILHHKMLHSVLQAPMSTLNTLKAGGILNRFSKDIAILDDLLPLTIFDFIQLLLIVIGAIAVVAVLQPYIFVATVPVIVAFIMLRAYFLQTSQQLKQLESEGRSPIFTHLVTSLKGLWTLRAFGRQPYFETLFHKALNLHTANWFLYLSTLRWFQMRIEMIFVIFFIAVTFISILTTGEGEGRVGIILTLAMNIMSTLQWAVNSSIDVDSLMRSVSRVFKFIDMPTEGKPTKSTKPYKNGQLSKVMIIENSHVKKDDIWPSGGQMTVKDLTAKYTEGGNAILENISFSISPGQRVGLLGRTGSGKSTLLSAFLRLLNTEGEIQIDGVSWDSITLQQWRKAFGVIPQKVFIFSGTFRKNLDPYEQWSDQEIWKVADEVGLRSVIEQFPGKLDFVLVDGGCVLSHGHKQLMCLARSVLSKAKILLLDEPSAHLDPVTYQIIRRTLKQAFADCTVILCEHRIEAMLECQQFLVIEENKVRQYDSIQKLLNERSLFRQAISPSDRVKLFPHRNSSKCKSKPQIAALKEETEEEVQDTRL
T2 sequence (P13569 with tags, fused parts or gaps DEL508-508): as above

In the case of `COc1ccc(C)cc1[C@]1(C(=O)NS(=O)(=O)c2cccc3nc(C)ccc23)C[C@@H]1c1cc(F)cnc1OC` [Example 84, (1S,2R)-2-(5-fluoro-2-methoxypyridin-3-yl)-1-(2-methoxy-5-methylphenyl)-N-(2-methylquinoline-5-sulfonyl)cyclopropane-1-carboxamide], the EC50 in assay [1] (setting [3]) was determined as 0.945 µM; in assay [1] (setting [4]), 1.36 µM; in assay [2] it was 0.0175 µM. For the same molecule, in assay [2], the “Emax (% Dual)” value is 215 % Dual.
As to `CCOc1cccc([C@@H]2C[C@]2(C(=O)NS(=O)(=O)c2cccc3nc(C)ccc23)c2cc(C)ccc2OC)n1` [Example 56, (1R,2R)-2-(6-ethoxypyridin-2-yl)-1-(2-methoxy-5-methylphenyl)-N-(2-methylquinoline-5-sulfonyl)cyclopropane-1-carboxamide], the results for the EC50 in assay [1] (setting [3]), in assay [1] (setting [4]) and in assay [2] were 0.386 µM, 0.89 µM and 0.0085 µM, respectively. Further, in assay [1] (with co-corrector (2 μM), normalized to on-plate positive control corrector (2 μM)), the “Maximum % activity (with co-corrector)” value is recorded as 917%. The “Maximum % activity (without co-corrector)” value in assay [1] (setting [5]) is 370%. In assay [2], the “Emax (% Dual)” value worked out at 290 % Dual.
As for `COc1ccc([C@@H]2C[C@]2(C(=O)NS(=O)(=O)c2cccc3nc(C)ccc23)c2cc(C)ccc2OC)cc1` (racemic) [Example 9, rac-(1r,2s)-1-(2-methoxy-5-methylphenyl)-2-(4-methoxyphenyl)-N-(2-methylquinoline-5-sulfonyl)cyclopropane-1-carboxamide], the EC50 in assay [1] (setting [4]) was 1.67 µM. In addition, in assay [2], the “Emax (% Dual)” value was determined as 381 % Dual and the EC50 worked out at 0.0011 µM.
As to `COc1ccc(C)cc1[C@]1(C(=O)NS(=O)(=O)c2cccc3nc(C)ccc23)C[C@@H]1c1ccc(N(C)C)nc1` [Example 68, (1S,2R)-2-[6-(dimethylamino)pyridin-3-yl]-1-(2-methoxy-5-methylphenyl)-N-(2-methylquinoline-5-sulfonyl)cyclopropane-1-carboxamide], the EC50 in assay [1] (setting [3]) amounted to 1.12 µM; in assay [1] (setting [4]) it was 2.76 µM; in assay [2] it was 0.0211 µM. Further, the “Maximum % activity (without co-corrector)” value in assay [1] (setting [5]) is 657%. Moreover, in assay [2], the “Emax (% Dual)” value is 217 % Dual.
`COc1ccc(C)cc1[C@@]1(C(=O)NS(=O)(=O)c2cccc3nc(C)ccc23)C[C@H]1c1ccccn1` [Example 13, (1R,2R)-1-(2-methoxy-5-methylphenyl)-N-(2-methylquinoline-5-sulfonyl)-2-(pyridin-2-yl)cyclopropane-1-carboxamide]: the figures for the EC50 in assay [1] (setting [3]), in assay [1] (setting [4]) and in assay [2] were 1.49 µM, 2.48 µM and 0.0577 µM, respectively. In addition, the “Emax (% Dual)” value in assay [2] worked out at 232 % Dual.
As for `COc1ccc(C)cc1[C@]1(C(=O)NS(=O)(=O)c2cccc3nc(C)ccc23)CC1c1cccc(Cl)n1` (stereo in doubt) [Example 105, (1S,2S)-2-(6-chloropyridin-2-yl)-1-(2-methoxy-5-methylphenyl)-N-(2-methylquinoline-5-sulfonyl)cyclopropane-1-carboxamide], the values for the EC50 in assay [1] (setting [3]), in assay [1] (setting [4]) and in assay [2] were 0.277 µM, 1.45 µM and 0.0031 µM, respectively. The “Emax (% Dual)” value in assay [2] is on record as 296 % Dual.
On to `COc1ccc(C)cc1[C@@]1(C(=O)NS(=O)(=O)c2cccc3nc(C)ccc23)C[C@H]1c1ccccc1F` (racemic) [Example 22, rac-(1r,2r)-2-(2-fluorophenyl)-1-(2-methoxy-5-methylphenyl)-N-(2-methylquinoline-5-sulfonyl)cyclopropane-1-carboxamide], for which the EC50 turned out to be 0.844 µM in assay [1] (setting [3]), 0.929 µM in assay [1] (setting [4]) and 0.009 µM in assay [2]. Further, the “Emax (% Dual)” value in assay [2] is given as 268 % Dual.
For `COc1cnc([C@H]2C[C@@]2(C(=O)NS(=O)(=O)c2cccc3nc(C)ccc23)c2cc(C)ccc2OC)c(OC)n1` [Example 82, (1S,2S)-2-(3,5-dimethoxypyrazin-2-yl)-1-(2-methoxy-5-methylphenyl)-N-(2-methylquinoline-5-sulfonyl)cyclopropane-1-carboxamide], the EC50 worked out at 0.351 µM in assay [1] (setting [3]), 0.73 µM in assay [1] (setting [4]) and 0.0522 µM in assay [2]. In addition, the “Maximum % activity (without co-corrector)” value in assay [1] (setting [5]) amounted to 937%. For the same molecule, the “Emax (% Dual)” value in assay [2] came out at 210 % Dual.
The corresponding values for `COc1ccc(C)cc1[C@@]1(C(=O)NS(=O)(=O)c2cccc3nc(C)ccc23)C[C@H]1c1ccccc1` (single isomer, unassigned) [Example 2] are 0.497 µM, 0.626 µM, 0.0129 µM, 523% and 250 % Dual.
`COc1ccc(C)cc1[C@@]1(C(=O)NS(=O)(=O)c2cccc3nc(C)ccc23)C[C@H]1c1cccc(F)c1` (racemic) [Example 8, rac-(1r,2s)-2-(3-fluorophenyl)-1-(2-methoxy-5-methylphenyl)-N-(2-methylquinoline-5-sulfonyl)cyclopropane-1-carboxamide]: the 50% effective concentration (EC50) in assay [1] (setting [3]) worked out at 0.504 µM; in assay [1] (setting [4]), 0.844 µM; in assay [2], 0.0014 µM. Besides, the “Emax (% Dual)” value in assay [2] is reported as 429 % Dual.
As for `COc1ccc(C)cc1[C@@]1(C(=O)NS(=O)(=O)c2cccc3nc(C)ccc23)C[C@H]1c1ccc(C)cc1` (racemic) [Example 4, rac-(1r,2s)-1-(2-methoxy-5-methylphenyl)-2-(4-methylphenyl)-N-(2-methylquinoline-5-sulfonyl)cyclopropane-1-carboxamide], the EC50 in assay [1] (setting [3]) turned out to be 0.421 µM; in assay [1] (setting [4]), 0.489 µM; in assay [2], 0.0015 µM. Further, the “Maximum % activity (without co-corrector)” value in assay [1] (setting [5]) amounted to 944%. For the same molecule, the “Emax (% Dual)” value in assay [2] came out at 417 % Dual.
For the molecule `COc1ccc(C)cc1[C@@]1(C(=O)NS(=O)(=O)c2cccc3nc(C)ccc23)C[C@H]1c1cccc(C(F)(F)F)c1` (single isomer, unassigned) [Example 24], the EC50 in assay [1] (setting [3]) stood at 0.201 µM; in assay [1] (setting [4]), 0.583 µM; in assay [2] it was 0.002 µM. The “Emax (% Dual)” value in assay [2] was 286 % Dual.
For the molecule `COc1ccc(C)cc1[C@@]1(C(=O)NS(=O)(=O)c2cccc3nc(C)ccc23)C[C@H]1c1cccnc1OC` [Example 49, (1R,2S)-1-(2-methoxy-5-methylphenyl)-2-(2-methoxypyridin-3-yl)-N-(2-methylquinoline-5-sulfonyl)cyclopropane-1-carboxamide], the figures for the EC50 in assay [1] (setting [3]), in assay [1] (setting [4]) and in assay [2] were 1.17 µM, 1.99 µM and 0.0358 µM, respectively. Also, the “Maximum % activity (without co-corrector)” value in assay [1] (setting [5]) was found to be 453%. Moreover, the “Emax (% Dual)” value in assay [2] came to 321 % Dual.
